Reference: patent US20120165412A1, “Use of Resveratrol or Another Hydroxylated Stilbene For Preserving Cognitive Functioning” (N.V. Nutricia, priority 2009, published 2012)

Key:
aged mice [1] = experiment: Open field test (general explorative activity); assay type: in vivo, male C57BI/6 mice; conditions: chronic supplementation
Protocol: (§1) The experiment was performed with male C57BI/6 mice (Harlan, Horst, The Netherlands). Animals were individually housed under a 12 hours light/12 hours dark cycle with lights on at 8:00. Food and drinking water were provided ad libitum, except for the period of behavioural testing as described below. The experiment was started with 60 mice, half of which served as control (CON) and half of which received resveratrol in their food from the age of 1 year onwards (RES). Between the ages of 18 and 20 month, spatial learning performance of the animals was studied in a Y-maze test. At the age of 24 month, brains were collected and processed for immunocytochemistry to asses cholinergic parameters and electron microscopy for several cerebrovascular analyses. […]
To examine general explorative activity, mice were subjected to an open-field test for 5 minutes. […] Position and locomotion of the mice was recorded and analyzed with a computerized video tracking system (Ethovision, Noldus Information Technology, Wageningen, The Netherlands). The number of visits and time spend in each of the two zones was determined. […]
(§2) Behavioural performance was statistically analyzed with a one way ANOVA paradigm for repeated measures. Immunocytochemical data and EM data were statistically analyzed with an independent samples T-test (2-tailed). Data are expressed as averages ±S.E.M. P<0.05 was considered as significant.

aged mice [2] = experiment: Y-maze spatial learning test; assay type: in vivo, male C57BI/6 mice
Protocol: (§3) The experiment was performed with male C57BI/6 mice (Harlan, Horst, The Netherlands). Animals were individually housed under a 12 hours light/12 hours dark cycle with lights on at 8:00. Food and drinking water were provided ad libitum, except for the period of behavioural testing as described below. The experiment was started with 60 mice, half of which served as control (CON) and half of which received resveratrol in their food from the age of 1 year onwards (RES). Between the ages of 18 and 20 month, spatial learning performance of the animals was studied in a Y-maze test. At the age of 24 month, brains were collected and processed for immunocytochemistry to asses cholinergic parameters and electron microscopy for several cerebrovascular analyses. The procedures concerning animal care and treatment were in accordance with the regulations of the ethical committee for the use of experimental animals of the University of Groningen.
To examine cognitive performance, the mice were subjected to a Y-maze test in which they had to learn the location of a food reward in one of two accessible choice arms. […] The home cages of the mice were equipped with a small sliding door that connected to the starting arm. One of the two test arms was baited with a food reward consisting of small crumbs of the regular food. Food crumbs were also placed below perforations at the end of the two test arms to prevent animals from discriminating between baited and non-baited arms by olfactory cues. […]
The Y-maze test took place during the first half of the light phase between 10:00 and 14:00 in a room adjacent to the home cage room. […] A visit to the baited arm was recorded as a correct trial. […]
as §2

[3] = system: cholinergic system (nucleus basalis, hippocampus); experiment: AChE histochemistry of cholinergic cells and fibres; assay type: in vivo, male C57BI/6 mice; conditions: age 24 months, RES versus CON
Protocol: as §1, with “test.” for “test. At the age of 24 month, brains were collected and processed for immunocytochemistry to asses cholinergic parameters and electron microscopy for several cerebrovascular analyses.”
For histology, brain tissue was cryoprotected in 30% sucrose in 0.1 M phosphate buffer for 48 h after which 20 μm sections were cut with a cryostat (Leica CM3050). […] Cells positive for AChE were quantified in sections containing nucleus basalis (around bregma −0.7) and AChE fibre density measurements were performed by a computerized image analysis system Quantimet (Leica) in the dorsal hippocampus.
as §2

hippocampal microvessels = experiment: Electron microscopy of the cerebrovascular system; assay type: in vivo, male C57BI/6 mice; conditions: age 24 months
Protocol: as §3
At the age of 24 months animals were sacrificed for histochemical and electronmicroscopical analysis. Mice were anaesthetized by a high dose of pentobarbital sodium salt (Nembutal, 60 mg/kg bodyweight) and transcardially perfused with heparinised saline followed by 4% phosphate buffered paraformaldehyde. After perfusions, brains were removed from the skull and kept in 0.01 M PBS overnight. […]
After perfusion, 18 brains were prepared for electron microscopy using standard methods. […] The samples were then coverslipped with DPX and analyzed under a light microscope. […] Finally, the samples were analyzed and photographs were taken with a Philips TM10 transmission electron microscope.
For quantitative analysis, approximately 4000 μm^2 tissue surface was scanned systematically in each region, and 61±10 microvascular cross sections were examined in each sample. Vascular density was calculated for a standard surface area with the help of the sample grid. In addition to microvessel density, the occurrence of the following features were quantitated: luminal endothelial protrusions, large empty endothelial vacuoles and basement membrane thickening. […] The number of microvessels displaying any of the noted abnormalities was counted and expressed as percentage of the total number of microvessels examined. Capillaries and arterioles were analyzed separately. Since arterioles were encountered at high enough number for statistical analysis only in the hippocampal vascular layer, quantitative analysis of arteriolar condition was performed for this region of the hippocampus alone.
as §2

[4] = Survival, food intake, body weight and general health under chronic dietary supplementation; assay type: in vivo
Protocol: as §3
To rule out differences in food intake between animals on a control diet and resveratrol-supplemented diet, food intake and body weight were monitored every two weeks. To establish whether resveratrol provided in the food enters the circulation, a pilot experiment was performed in which blood was collected from mice by decapitation after 1 day and 30 days of supplementation. Plasma concentrations of resveratrol were measured. After 1 day of supplementation, resveratrol levels in the plasma were 88.5 μg/l at the end of the dark phase or active phase, when mice consume most of their food, and 41 μg/l at the end of the light phase or resting phase (n=3 each). After 1 month of supplementation, the levels were 102.7 and 30.7 μg/l at the end of active phase and rest phase, respectively (n=3 each). These measurements confirm that resveratrol ingested via the food indeed entered the circulation, and the levels appeared to fluctuate over the day in a fashion that paralleled food intake. Supplementation of resveratrol via food thus seemed an appropriate and simple method for further studies.
Animals received resveratrol in their food from 1 year of age onwards. […]

[5] = hippocampal microvessels, versus control

Oc1ccc(C=Cc2cc(O)cc(O)c2)cc1 [Resveratrol, 3,5,4′-trihydroxystilbene]
more time spent in the centre of the arena than control animals (aged mice [1]; 5 minutes open field test, p=0.003): about 50% | locomotion (total distance covered) in open field (aged mice [1]; 5 minutes test, RES versus CON): the same amount of locomotion | Y-maze final level of performance on day 3 and retention trial on day 10 (aged mice [2]; RES versus CON): not different | Y-maze performance on the second day of the training phase (aged mice [2]; posthoc test, RES versus CON, p<0.05): performed better then CON animals | Y-maze learning (number of correct choices on day 1 to 3) (aged mice [2]; training phase, age 18-20 months, repeated measures ANOVA p=0.016): improved learning | cholinergic cell number in the nucleus basalis [3]: did not reveal any difference | cholinergic fibre density in the CA1 and dentate gyrus of the hippocampus [3]: unchanged | vascular density in the hippocampus, higher than in control animals (hippocampal microvessels; chronic supplementation, p=0.019): about 15% | number of microvessels with endothelial vacuoles (hippocampal microvessels; hippocampal arterioles, versus control, p=0.05): significantly reduced | occurrence of basement membrane thickening (hippocampal microvessels; [5]): not significantly affected | occurrence of endothelial processes (hippocampal microvessels; [5]): not significantly affected | food intake, growth and body weight ([4]; mouse, in vivo): did not affect food intake, growth and body weight | general health (regular visual inspection) ([4]; mouse, in vivo): did not indicate obvious differences in general health | mortality rate ([4]; resveratrol in food from 1 year to 24 months of age, RES versus CON): no significant differences in mortality rate
